# Data from US9365851B2, “Spalt-like transcription factor 4 (SALL4) and uses thereof” (National University of Singapore, priority 2011, dated 2016).
# How the values were obtained:
# [1] = system: PTEN/AKT pathway; test: PTEN/AKT pathway expression in KBM5 cells (Western blot); assay type: cell-based
# Excerpt: To further evaluate the specificity of the SALL4/PTEN pathway, next investigated was whether wild type peptide treatment could affect the expression of PTEN and its downstream target, phosphorylated AKT (pAKT).
# [2] = system: AN3CA cells; test: Cell viability assay (MTT/MTS); assay type: cell-based, human; conditions: AN3CA (high SALL4, no PTEN)
# Description: Cell viability assay (MTT) (Invitrogen) was performed according to the manufacturer's instructions. Briefly—10000 cells were seeded in 100 ul medium in 96 well plates. The next day cells were treated as indicated on the figures. At the designated time after the treatment 20 ul of 5 mg/ml MTT solution was added to each well. After 3.5 h incubation at 37 C the medium was removed and the reaction was terminated with a solution of 4 mM HCl, 0.1% Nondet P-40 (NP40) all in isopropanol in dark on orbital shaker for […]. at room temperature. The absorbance was read at 590 nm with a reference filter of 620 nm in Spectromax M3 (ABI) spectrophotometer.
# Multiple leukemic and solid tumor cancer cell lines with high or low/no SALL4 expression (FIG. 10A) were chosen to test the biological effect(s) of the wild type peptide. Wild type or scrambled peptide was delivered into tumor cells at various concentrations, and their effects on cells were evaluated 72 hours post-treatment by the MTS cell viability assay. […] The effect of wild type peptide is SALL4-specific, as it had no effect on KBM5, an AML cell line with undetectable endogenous SALL4 expression. We were surprised to see that the wild type peptide had no effect on a high SALL4-expressing endometrioid cancer cell line, AN3CA. […] Therefore, expression of PTEN was evaluated in AN3CA cells along with other cell lines. […]
# [3] = system: SALL4; test: SALL4 knock-down in HCC cells (qPCR, Western blot); assay type: cell-based, human
# Description: Lentiviruses expressing scrambled shRNA or E5 SALL4-specific shRNA were packaged by treansfection of 293T cells with lentiviral vector pLL3.7. 24 hours and 48 hours post-transfection, viruses were harvested and filtered through […]. Virus titers were determined by FACS analysis of GFP expression using infected 3T3 cells by the conventional ways. MOI 0.5 to 5 was used dependent on individual cell lines. Transduction of HCC cells were carried out using spinoculation protocol, virus was added to the trypsinized cells and let settle for an hour at 37° C. in a humidified atmostphere of 5% CO2, centrifuged at 2,200 RPM at 37° C. for 90 mins and incubated overnight at 37° C. in a humidified atmostphere of 5% CO2. Transduction efficiency was determined by GFP expression by FACS analysis.
# After successfully establishing the expression pattern of SALL4 in human livers at various stages and the clinical significance of SALL4 in HCC, the functional roles of SALL4 in HCC was investigated. […] The efficiency of virus transduction was assessed by FACS analysis of GFP expression. […]
# Next, the potential of SALL4 as a molecular target for therapeutic intervention in HCC was examined by performing loss-of-function studies. […] The efficiency of virus transduction was assessed by the percentage of cells expressing GFP by flow cytometry. […]
substance,measurement,setting,value
"H-MSRRKQAKPQHI-OH [wt peptide, MSRRKQAKPQHI]",levels of PTEN and pAKT,[1],little or no effect
same,cell viability,[2],had no effect
"CTATTTAGCCAAAGGCAAA (short hairpin RNA, chemistry and delivery not given here, further chemistry not given here) [E5 shRNA]",SALL4 isoforms mRNA level after knockdown,"[3]; SNU-398, four days post-transduction",70%
same,SALL4 protein level after knockdown,[3]; Western blot,almost all SALL4 proteins were gone
